Consider three molecules from patent US20130259999A1, “METHOD FOR INHIBITING YEAST ACTIVITY” (PURAC BIOCHEM B.V., priority 2010, published 2013).

Marks after values point to notes of the source that are not given here. Where only a bound is given, the exact number is not on record here.

The test system of test [1] is Candida albicans. The test can be described thus: Determination of the minimal inhibitor concentration (MIC) in liquid medium. It counts as cell-based. To be noted: C. Albicans; liquid medium pH 3.5; OD 96 hours after inoculation. The method, then:
(§1) Candida albicans was isolated from a commercial beverage, Saccharomyces cerevisiae (CBS 2190) and Zygosaccharomyces bailii (CBS 6708) were obtained from CBS (Centraalbureau voor Schimmelcultures).
(§2) Yeast cultures were grown in liquid medium (per liter: 5 gram filtered Malt Extract from Oxoid Ltd., England, 40 gram glucose and 5 gram Bacto Peptone from Becton Dickinson, USA, at pH 3.5 prepared according to the manufacturer instructions) in screw-capped tubes for at least 48 hours at 25° C.
(§3) For the determination of the MIC, liquid medium was prepared as described above with increasing amounts of inhibitor. 200 μl of each inhibitor-comprising medium was transferred to a panel of a sterile 96-well Microtiter plate. Completed well plates were stored at 4° C. until further use. For the inoculation of the inhibitor-containing liquid media 5 μl of a 72 to 84 hours grown culture was used. The optical density (OD) for every composition was measured 96 hours after inoculation.

Test [2] relates to Saccharomyces cerevisiae (CBS 2190). The test is described as above. Format: cell-based. To be noted: S. cerevisiae; liquid medium pH 3.5; OD 96 hours after inoculation. The method, then: as §1, §2, §3
Test [3] has as its system Zygosaccharomyces bailii (CBS 6708). The description is as above. It counts as cell-based. To be noted: Z. bailii; liquid medium pH 3.5; OD 96 hours after inoculation. The method, then: as §1, §2, §3
For test [4], the system named is Candida albicans. Description: Combination tests: inhibition of yeast in model beverage. Format: cell-based. The conditions noted are these: C. Albicans, model beverage pH about 3.5, 96 hours. The method, then: as §1
(§4) Inhibition of yeast was evaluated for combinations of EGCG and polylysine or LAE.
(§5) Yeast cultures were grown in model beverage which contained per litter of demineralised water: 40 g of sucrose, 0.35 g of apple flavour (Givaudan), 8.3 g of apple juice concentrate (Gargill) and 1 g of citric acid. The pH was about 3.5. Cultures were grown in screw-capped tubes for at least 48 hours at 25° C.
(§6) The tests combining two components were carried out in sterile 96-well Microtiter plates. Model beverage was prepared as described above with increasing amounts of two different inhibitors. The concentrations of each inhibitor were presented in 8 equal concentration steps that ranged from 0 to 1-2 times the estimated MIC value of particular yeast for a particular inhibitor. 200 μl of each medium was transferred to a panel of a sterile 96-well Microtiter plate. Completed well plates were stored at 4° C. until further use. For the inoculation of this test 5 μl of a 72 to 84 hours grown culture was used. The OD for every composition was measured 96 hours after inoculation.

Test [5] deals with Zygosaccharomyces bailii (CBS 6708). Described as above. It counts as cell-based. To be noted: Z. bailii, model beverage pH about 3.5, 96 hours. The method, then: as §1, §4, §5, §6
In test [6] the test system is Saccharomyces cerevisiae (CBS 2190). The test is described as above. To be noted: S. cerevisiae, model beverage pH about 3.5, 96 hours. Format: cell-based. The method, then:
as §1, §4, §5, §6

In another test the test system is Saccharomyces cerevisiae. To be noted: culture medium, WO 2009/031041; cited from earlier work.
Another test concerns Kluyveromyces marxianus. The conditions noted are these: culture medium, WO 2009/031041; cited from earlier work.
Where [7] appears, read: EGCG 0.07 wt. %, average of two experiments.

As for ε-Polylysine, the results for the MIC (against Candida albicans [1]; in test [2]; in test [3]) were >40* ppm, 30-80 ppm and >40* ppm, respectively. Moreover, the “Maximum OD” value is on record as 0.32 in the test with Candida albicans [4] (ε-polylysine 0.0005 wt. %) and 0.40 in test [5] (ε-polylysine 0.0005 wt. %).
As to `O=C(O[C@@H]1Cc2c(O)cc(O)cc2O[C@@H]1c1cc(O)c(O)c(O)c1)c1cc(O)c(O)c(O)c1` [EGCG, Epigallocatechin gallate], the MIC in the test with Candida albicans [1] came to 9000 ppm; in test [2], 5000 ppm; in test [3] it was 2000 ppm. Moreover, the “Maximum OD” value in the test on Candida albicans [4] (setting [7]) is on record as 0.40*; in test [6] (setting [7]) it was 0.28*; in test [5] (setting [7]), 0.28*.
Consider `CCCCCCCCCCCC(=O)N[C@@H](CCCN=C(N)N)C(=O)OCC` [LAE, lauric arginate], for which the MIC in the test on Candida albicans [1] is given as >70* ppm; in test [2], 30-80 ppm; in test [3] it was >70* ppm; in the test with Saccharomyces cerevisiae it was 24 ppm; in the test with Kluyveromyces marxianus it was 7 ppm. Further, the figures for the “Maximum OD” value (with Candida albicans [4] (LAE 0.002 wt. %); in test [6] (LAE 0.001 wt. %); in test [5] (LAE 0.002 wt. %)) were 0.30, 0.19 and 0.38, respectively.
